According to the NIST ThermoML archive (doi:10.1021/je201297j):
± gives the expanded uncertainty stated by the source.

Conditions: Liquid, Vibrating wire viscometry

## COC [dimethyl ether]
243.15 K
  viscosity: 0.2217 ± 0.0062 mPa·s
248.16 K
  viscosity: 0.2097 ± 0.006 mPa·s
253.15 K, 5000 kPa
  viscosity: 0.2044 ± 0.0059 mPa·s
253.15 K, 10000 kPa
  viscosity: 0.2125 ± 0.006 mPa·s
253.15 K, 15000 kPa
  viscosity: 0.2199 ± 0.0062 mPa·s
253.15 K, 20000 kPa
  viscosity: 0.2314 ± 0.0064 mPa·s
253.15 K, 25000 kPa
  viscosity: 0.2421 ± 0.0066 mPa·s
253.15 K, 30000 kPa
  viscosity: 0.2541 ± 0.0068 mPa·s
253.15 K
  viscosity: 0.1988 ± 0.0058 mPa·s
258.14 K
  viscosity: 0.1889 ± 0.0057 mPa·s
263.15 K, 5000 kPa
  viscosity: 0.1836 ± 0.0056 mPa·s
263.15 K, 10000 kPa
  viscosity: 0.1911 ± 0.0057 mPa·s
263.15 K, 15000 kPa
  viscosity: 0.1989 ± 0.0058 mPa·s
263.15 K, 20000 kPa
  viscosity: 0.2068 ± 0.006 mPa·s
263.15 K, 25000 kPa
  viscosity: 0.2156 ± 0.0061 mPa·s
263.15 K, 30000 kPa
  viscosity: 0.2252 ± 0.0063 mPa·s
263.15 K
  viscosity: 0.1796 ± 0.0055 mPa·s
268.14 K
  viscosity: 0.1709 ± 0.0054 mPa·s
273.14 K, 5000 kPa
  viscosity: 0.1669 ± 0.0053 mPa·s
273.14 K, 10000 kPa
  viscosity: 0.1742 ± 0.0054 mPa·s
273.14 K, 15000 kPa
  viscosity: 0.1816 ± 0.0056 mPa·s
273.14 K, 20000 kPa
  viscosity: 0.189 ± 0.0057 mPa·s
273.14 K, 25000 kPa
  viscosity: 0.196 ± 0.0058 mPa·s
273.14 K, 30000 kPa
  viscosity: 0.2035 ± 0.0059 mPa·s
273.14 K
  viscosity: 0.1628 ± 0.0052 mPa·s
278.13 K
  viscosity: 0.1552 ± 0.0051 mPa·s
283.14 K, 5000 kPa
  viscosity: 0.1521 ± 0.0051 mPa·s
283.14 K, 10000 kPa
  viscosity: 0.159 ± 0.0052 mPa·s
283.14 K, 15000 kPa
  viscosity: 0.1657 ± 0.0053 mPa·s
283.14 K, 20000 kPa
  viscosity: 0.1724 ± 0.0054 mPa·s
283.14 K, 25000 kPa
  viscosity: 0.1791 ± 0.0055 mPa·s
283.14 K, 30000 kPa
  viscosity: 0.1857 ± 0.0056 mPa·s
283.14 K
  viscosity: 0.1479 ± 0.005 mPa·s
288.14 K
  viscosity: 0.1414 ± 0.0049 mPa·s
293.14 K, 5000 kPa
  viscosity: 0.1395 ± 0.0049 mPa·s
293.14 K, 10000 kPa
  viscosity: 0.1455 ± 0.005 mPa·s
293.14 K, 15000 kPa
  viscosity: 0.1527 ± 0.0051 mPa·s
293.14 K, 20000 kPa
  viscosity: 0.1586 ± 0.0052 mPa·s
293.14 K, 25000 kPa
  viscosity: 0.1652 ± 0.0053 mPa·s
293.14 K, 30000 kPa
  viscosity: 0.1709 ± 0.0054 mPa·s
293.14 K
  viscosity: 0.1351 ± 0.0048 mPa·s
298.14 K
  viscosity: 0.129 ± 0.0047 mPa·s
303.14 K, 5000 kPa
  viscosity: 0.1276 ± 0.0047 mPa·s
303.14 K, 10000 kPa
  viscosity: 0.134 ± 0.0048 mPa·s
303.14 K, 15000 kPa
  viscosity: 0.1401 ± 0.0049 mPa·s
303.14 K, 20000 kPa
  viscosity: 0.1464 ± 0.005 mPa·s
303.14 K, 25000 kPa
  viscosity: 0.1521 ± 0.0051 mPa·s
303.14 K, 30000 kPa
  viscosity: 0.1584 ± 0.0052 mPa·s
303.14 K
  viscosity: 0.124 ± 0.0047 mPa·s
308.14 K
  viscosity: 0.1181 ± 0.0046 mPa·s
313.14 K, 5000 kPa
  viscosity: 0.1165 ± 0.0046 mPa·s
313.14 K, 10000 kPa
  viscosity: 0.1235 ± 0.0047 mPa·s
313.14 K, 15000 kPa
  viscosity: 0.1294 ± 0.0048 mPa·s
313.14 K, 20000 kPa
  viscosity: 0.1355 ± 0.0049 mPa·s
313.14 K, 25000 kPa
  viscosity: 0.1415 ± 0.0049 mPa·s
313.14 K, 30000 kPa
  viscosity: 0.1473 ± 0.005 mPa·s
313.14 K
  viscosity: 0.1129 ± 0.0045 mPa·s
318.12 K
  viscosity: 0.108 ± 0.0045 mPa·s
323.12 K, 5000 kPa
  viscosity: 0.107 ± 0.0045 mPa·s
323.12 K, 10000 kPa
  viscosity: 0.1139 ± 0.0046 mPa·s
323.12 K, 15000 kPa
  viscosity: 0.1199 ± 0.0046 mPa·s
323.12 K, 20000 kPa
  viscosity: 0.1262 ± 0.0047 mPa·s
323.12 K, 25000 kPa
  viscosity: 0.1316 ± 0.0048 mPa·s
323.12 K, 30000 kPa
  viscosity: 0.137 ± 0.0049 mPa·s
323.12 K
  viscosity: 0.1031 ± 0.0044 mPa·s
328.12 K
  viscosity: 0.09861 ± 0.0044 mPa·s
333.12 K, 5000 kPa
  viscosity: 0.09797 ± 0.0044 mPa·s
333.12 K, 10000 kPa
  viscosity: 0.1049 ± 0.0044 mPa·s
333.12 K, 15000 kPa
  viscosity: 0.1111 ± 0.0045 mPa·s
333.12 K, 20000 kPa
  viscosity: 0.117 ± 0.0046 mPa·s
333.12 K, 25000 kPa
  viscosity: 0.1231 ± 0.0047 mPa·s
333.12 K, 30000 kPa
  viscosity: 0.1284 ± 0.0047 mPa·s
333.13 K
  viscosity: 0.09419 ± 0.0043 mPa·s
338.13 K
  viscosity: 0.08983 ± 0.0043 mPa·s
343.13 K, 5000 kPa
  viscosity: 0.08951 ± 0.0043 mPa·s
343.13 K, 10000 kPa
  viscosity: 0.09664 ± 0.0043 mPa·s
343.13 K, 15000 kPa
  viscosity: 0.1036 ± 0.0044 mPa·s
343.13 K, 20000 kPa
  viscosity: 0.1096 ± 0.0045 mPa·s
343.13 K, 25000 kPa
  viscosity: 0.1151 ± 0.0046 mPa·s
343.13 K, 30000 kPa
  viscosity: 0.1204 ± 0.0046 mPa·s
343.13 K
  viscosity: 0.08575 ± 0.0042 mPa·s
348.13 K
  viscosity: 0.08166 ± 0.0042 mPa·s
353.12 K, 5000 kPa
  viscosity: 0.08119 ± 0.0042 mPa·s
353.12 K, 10000 kPa
  viscosity: 0.08899 ± 0.0043 mPa·s
353.12 K, 15000 kPa
  viscosity: 0.0959 ± 0.0043 mPa·s
353.12 K, 20000 kPa
  viscosity: 0.1017 ± 0.0044 mPa·s
353.12 K, 25000 kPa
  viscosity: 0.1075 ± 0.0045 mPa·s
353.12 K, 30000 kPa
  viscosity: 0.1127 ± 0.0045 mPa·s
353.12 K
  viscosity: 0.07777 ± 0.0042 mPa·s
358.13 K
  viscosity: 0.07388 ± 0.0042 mPa·s
363.13 K, 10000 kPa
  viscosity: 0.08181 ± 0.0042 mPa·s
363.13 K, 15000 kPa
  viscosity: 0.08877 ± 0.0043 mPa·s
363.13 K, 20000 kPa
  viscosity: 0.09499 ± 0.0043 mPa·s
363.13 K, 25000 kPa
  viscosity: 0.101 ± 0.0044 mPa·s
363.13 K, 30000 kPa
  viscosity: 0.1066 ± 0.0045 mPa·s
363.13 K
  viscosity: 0.07014 ± 0.0041 mPa·s
368.13 K
  viscosity: 0.06636 ± 0.0041 mPa·s
373.13 K, 5000 kPa
  viscosity: 0.06522 ± 0.0042 mPa·s
373.13 K, 10000 kPa
  viscosity: 0.07506 ± 0.0042 mPa·s
373.13 K, 15000 kPa
  viscosity: 0.08237 ± 0.0042 mPa·s
373.13 K, 20000 kPa
  viscosity: 0.08883 ± 0.0043 mPa·s
373.13 K, 25000 kPa
  viscosity: 0.09475 ± 0.0043 mPa·s
373.13 K, 30000 kPa
  viscosity: 0.09991 ± 0.0044 mPa·s
373.13 K
  viscosity: 0.06256 ± 0.0041 mPa·s
